For this test, the target named is T1, Dimer of Gag-Pol polyprotein [489-587] (Human immunodeficiency virus 1, UniProt P04585).
T1 construct: 489-587
Kind of test: Protease Inhibition Assay. How it is done: Inhibition of HIV protease was measured by assay of the cleavage of a fluorescent peptide substrate. The fluorescent product (2-aminobenzoyl-Ala-Thr-His-Gln-Val-Tyr) was separated from the fluorescent substrate by anion-exchange HPLC on a Mono-Q anion-exchange column (Pharmacia), and fluorescence was monitored at an excitation wavelength of 330 nm and an emission wavelength of 430 nm. Ki values for inhibitor binding were estimated at fixed concentrations of substrate and inhibitor from fractional activity measurements by use of the modified Michaelis-Menten equation.

Molecules are shown by their SMILES.

A word on the Ki: it is a measure of affinity in units of concentration, obtained from inhibition or displacement.

For the compound `N/C(=N\O)c1cccc(CN2C(=O)N[C@H](CCc3ccccc3)[C@@H](O)[C@H]2Cc2ccccc2)c1` [(4R,5R,6R)-Tetrahydro-1-(3-(N-hydroxycarboximidamide)phenylmethyl)-6-phenylmethyl-5-hydroxy-4-(2-phenylethyl)-2(1H)-pyrimidinone], the Ki came out at 0.24 nM.
Then `O=C1N[C@H](CCc2ccccc2)[C@@H](O)[C@@H](Cc2ccccc2)N1Cc1ccccc1` [(4R,5S,6R)-Tetrahydro-1,6-bis-(phenylmethyl)-5-hydroxy-4-(2-phenylethyl)-2(1H)-pyrimidinone], with 66 nM.

These data come from BindingDB's records for doi:10.1021/jm9803626 (Dupont Pharmaceuticals, 1999).
